Assay results from patent US20220073942A1, “Cells with reduced inhibitor production and methods of use thereof” (PFIZER INC., priority 2018, published 2022).
Read-outs that look alike come from different tables or passages of the source.

Key:
CHO cells (cell line A) = settings: fresh Medium A supplemented with formate at 0, 2, 4 and 6 mM, growth monitored for 5 or 6 days, FIG. 3B
Experimental: CHO cells (cell line A or cell line B) producing a recombinant antibody were inoculated at low cell densities (0.1 E6 cells/mL) in various conditions in triplicates in 6-well plate cultures. The working volume for each well on day 0 was 4 mL. Cell line A was inoculated either in fresh Medium A or fresh Medium A supplemented with formate at various concentrations. Cell line B was inoculated either in fresh Medium A or fresh Medium A supplemented with glycerol at various concentrations. The concentrations tested for formate were [0, 2, 4 and 6 mM] and for glycerol were [0, 2 and 4 mM]. The 6-well plates were incubated on a shaking platform in 36.5C and 5% carbon dioxide. Cell growth in all the conditions was monitored for 5 or 6 days.

CHO cells (cell line B) = assay: Effect of glycerol on growth (viable cell density) of CHO cells in 6-well plate culture; format: cell-based, Chinese hamster; settings: fresh Medium A supplemented with glycerol at 0, 2 and 4 mM, growth monitored for 5 or 6 days, FIG. 3A

Structure (SMILES) | concentration at which cell growth was suppressed (CHO cells (cell line A)) | concentration at which cell growth was suppressed (CHO cells (cell line A); listed as Formate) | concentration at which cell growth was suppressed (CHO cells (cell line B)) | concentration at which cell growth was suppressed (CHO cells (cell line B); listed as Glycerol)
O=CO [formate] | higher than 2 mM | ≥ 2 mM |  | 
OCC(O)CO [glycerol] |  |  | higher than 2 mM | ≥ 2 mM
